Measurements: PubChem BioAssay AID1259334 (Broad Institute, 2017)
“And” between values parts separate entries of the source, which are not always exact repeats. Identical values can stand only once. The source made the active and inactive calls. Cut-off read from the data, not from the text of the source: active = AC50 below about 11 µM. Numbered stars: 1 amine (or outer) side, 2 acyl side, 3 side chain; on linkers, the order of the positions; unused ones are H or OH. Bridge positions count the residues as written; N and C are the ends. Square brackets hold non-standard residues; d marks the D form. Peptide text beside a SMILES is read from it. I, II: the chains in the order shown. Actinocin(9to1) = Cc1c2oc3c(C)ccc(C(=O)[*:1])c3nc-2c(C(=O)[*:2])c(N)c1=O; NMeV = CN[CH](C(=O)O)C(C)C; Sar = CNCC(=O)O

These compounds were tested on B cell line, TNFa signaling counterscreen reporter (assay: TNFa pathway inhibition counter-screen, B-lineage cells – dose response (AID 1259334);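 note: cells stimulated with TNFa after compound preincubation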).
`CC(=O)O[C@@H]1C[C@@]2(C)[C@H](c3ccoc3)C[C@H]3O[C@]32[C@]2(C)C(=O)C(=O)C3C(C)(C)C(=O)C=C[C@]3(C)C12` (stereo partly specified) gave an AC50 of 1.22 µM. For `CS(=O)(=O)c1ccc(C(=O)OCC(=O)NC(=O)C2CCCCC2)cc1[N+](=O)[O-]`, the AC50 was 2.79 µM. With `COc1ccc(C(=O)O/N=C2\C(=O)N(C)c3ccccc32)cc1` the AC50 was 7.39 µM. `Cc1ccc(S(=O)(=O)NC(C(=O)Oc2cc3oc(=O)cc(C)c3cc2Cl)C(C)C)cc1` (stereo unspecified) showed an AC50 of 9.41 µM. With `Cc1cccc(-c2ccc(C3[C@@H]4CN(C(=O)Nc5ccc(C(F)(F)F)cc5)C[C@H]3N4)cc2)c1` (stereo partly specified) the AC50 was > 20 µM (inactive). For `COc1ccc(S(=O)(=O)Nc2ccc3c(c2)C(=O)N([C@H](C)CO)C[C@@H](C)[C@@H](CN(C)Cc2ccc(C(F)(F)F)cc2)OCCCC[C@H](C)O3)cc1`, the AC50 was > 20 µM (inactive). `C[C@H](CO)N1C[C@H](C)[C@@H](CN(C)Cc2cccc(C(F)(F)F)c2)OCc2ccccc2-c2c(n(C)c3ccccc23)C1=O` gave an AC50 of 8.03 µM. Work on `COc1ccc(/C=N/Nc2ncccc2[N+](=O)[O-])c(OC)c1` yielded an AC50 of 5.22 µM. With `O=C(/C=C/c1ccccc1)CC(O)(c1ccccc1)C(F)(F)C(F)F` (stereo unspecified) the AC50 was 5.06 µM. `CCCCn1c(NC(=O)c2ccc(Br)o2)c(S(=O)(=O)c2ccccc2)c2nc3ccccc3nc21` showed an AC50 of 9.82 µM. Compound `Clc1ccc(C(Cn2ccnc2)OCc2ccsc2Cl)c(Cl)c1` (stereo unspecified) has an AC50 of 4.05 µM. `Cc1c(CCOC(=O)CC23CC4CC(CC(C)(C4)C2)C3)sc[n+]1CC(=O)c1ccccc1` showed an AC50 of 1.81 µM. For `COc1ccc2c3c([nH]c2c1)[C@H](CO)N(C(=O)Nc1ccc(F)cc1)CC31CCN(C(=O)c2ccccc2F)CC1`, the AC50 was 6.12 µM. For `O=C(Nc1ccc(C(F)(F)F)cc1)Nc1ccc2c(c1)[C@H]1C[C@@H](CC(=O)N3CCc4ccccc4C3)O[C@@H](CO)[C@H]1O2`, the AC50 was > 7 µM (inactive). `C[C@H]1CN([C@@H](C)CO)C(=O)c2c(c3ccccc3n2C)-c2ccccc2CO[C@@H]1CN(C)Cc1cccc(C(F)(F)F)c1` gave an AC50 of 8.42 µM. Compound `CC1OC(OC2C(O)CC(OC3C(O)CC(OC4CCC5(C)C(CCC6C5CCC5(C)C(C7=CC(=O)OC7)C(O)CC65O)C4)OC3C)OC2C)CC(O)C1O` (stereo unspecified) has an AC50 of 0.745 µM. `O=C(Nc1ccc2c(c1)OCCO2)C1CCCC1` showed an AC50 of 1.76 µM. `C[C@@H]1CN([C@@H](C)CO)C(=O)c2ccccc2-c2ccccc2CO[C@H]1CN(C)Cc1ccccc1C(F)(F)F` gave an AC50 of 7.43 µM. `O=C(c1ccc(Nc2nccc(-c3cc4ccccc4s3)n2)cc1)N1CCC(N2CCCC2)CC1` was tested, and the AC50 was 0.15 µM and 0.715 µM. Work on `Cc1ccc(C(OCC(O)CNCc2ccc(F)cc2)c2ccccc2)cc1` (stereo unspecified) yielded an AC50 of 7.2 µM. Work on `Cc1cc(C(=O)COC(=O)CNC(=O)c2ccccc2)c(C)n1CC1CCCO1` (stereo unspecified) yielded an AC50 of 5.61 µM. In the case of `N#C[C@H]1[C@H](c2ccc(C#Cc3ccccc3F)cc2)[C@@H](CO)N1C(=O)C1CCC1`, the AC50 is reported as > 20 µM (inactive). In the case of `C[C@@H]1CC=CC[C@H](c2ccc(F)cc2)NC(=O)[C@@H](Cc2ccccc2)N(C)C(=O)c2ccccc2O1` (mixture of isomers), the AC50 is reported as > 20 µM (inactive). `CC1=C(SCCO)C(=O)c2ccccc2C1=O` was tested, and the AC50 was 2.22 µM. `Cc1c2oc3c(C)ccc(C(=O)OC(C)C4NC(=O)C(C(C)C)N(C)C(=O)CN(C)C(=O)C5CCCN5C(=O)C(C(C)C)NC4=O)c3nc-2c(C(=O)OC(C)C2NC(=O)C(C(C)C)N(C)C(=O)CN(C)C(=O)C3CCCN3C(=O)C(C(C)C)NC2=O)c(N)c1=O` (stereo unspecified) (I: cyclo([Sar][NMeV]TVP) / II: cyclo([Sar][NMeV]TVP); linker I:3-II:3 via Actinocin(9to1); configuration not given here) showed an AC50 of 0.00519 µM. `COc1cccc(/C=N/Nc2ccc(C(=O)O)cc2)c1O` was tested, and the AC50 was 2.02 µM. `COc1ccc(CC2C(=O)NC(C)C(=O)N(C)C3Cc4ccc(cc4)Oc4cc(ccc4O)CC(C(=O)NC(C)C(=O)NC(C)C(=O)N2C)N(C)C3=O)cc1` (stereo unspecified) gave an AC50 of 0.00464 µM. Compound `CC(=O)NC12CC3CC(C1)CC(C(=O)OCC(=O)c1ccc4c(c1)OCCO4)(C3)C2` has an AC50 of 6.44 µM. With `CC[N+]1(C)CCC(O)(c2ccc(OC)cc2)C(C(=O)c2ccc(OC)cc2)C1` (stereo unspecified) the AC50 was 3.52 µM. In the case of `CC(NCC(O)COCCC12CC3CC(CC(C3)C1)C2)c1ccccc1` (stereo unspecified), the AC50 is reported as 4.1 µM. `COc1ccc(C=Cc2ccc3ccccc3n2)c(OC)c1` was tested, and the AC50 was 3.48 µM. In the case of `CC1(C)C(=O)C=C[C@@]2(C)C1C[C@@H](O)[C@]1(C)C2CC[C@@]2(C)[C@H](c3ccoc3)OC(=O)[C@H]3O[C@]321` (stereo partly specified), the AC50 is reported as 11.3 µM. `Cc1ccsc1C(=O)OCC(=O)c1cc(C)n(CC2CCCO2)c1C` (stereo unspecified) gave an AC50 of 0.0426 µM. Work on `CC=Cc1cc2c(c(=O)o1)C(=O)C(O)C(C)O2` (stereo unspecified) yielded an AC50 of 10.4 µM. `C[C@@H]1CN([C@@H](C)CO)C(=O)c2c(c3ccccc3n2C)-c2ccccc2CO[C@H]1CN(C)Cc1cccc(C(F)(F)F)c1` was tested, and the AC50 was 6.02 µM. Work on `COC(=O)C12OCC34C(CC5C(C)=C(O)C(=O)CC5(C)C3C(O)C1O)OC(=O)C(OC(=O)C=C(C)C)C24` (stereo unspecified) yielded an AC50 of 0.671 µM. Work on `CC1CC(C)(C)Nc2ccc(OC(=O)c3ccco3)cc21` (stereo unspecified) yielded an AC50 of 2.42 µM. `Cc1cnc(NC(=O)c2ccc(OCC3CCCO3)cc2)s1` (stereo unspecified) gave an AC50 of 4.02 µM. Work on `CC(=O)OC1C(=O)OCC23CCC4(C)OC4C2OC2CC(OC(=O)C=CC=CC(=O)OCCC1C)C3(C)C21CO1` (stereo unspecified) yielded an AC50 of 0.00412 µM. Compound `c1ccc(OCCSc2nnc3sc4ccccc4n23)cc1` has an AC50 of 2.98 µM. `CC(=O)OCC(=O)C1(O)CCC2C3CCC4=CC(=O)CCC4(C)C3(Cl)C(O)CC21C` (stereo unspecified) was tested, and the AC50 was > 20 µM (inactive).
